According to ChEMBL document CHEMBL1201862, “PubChem BioAssay data set” (2004):
Active and inactive are the calls of the source.

Assays:
BJ [1] = assay: BJ-TERT-LT-ST fibroblast viability loss – cell-based, RAS-independent, luminescence, dose response (AID 1935); assay type: functional; settings: Homo sapiens;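 further: BJ fibroblasts immortalized with TERT plus LT and ST oncogenes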
[2] = target: T1, Type-1 angiotensin II receptor (Homo sapiens, UniProt P30556); assay: agonist activity at AGTR1 – cell-based, uHTS hits, selectivity assay for APJ receptor agonist project, dose response (AID 488865); assay type: functional;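 further: beta-arrestin recruitment to AT1 measured by enzyme fragment complementation luminescence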
T1 sequence (P30556 whole entry): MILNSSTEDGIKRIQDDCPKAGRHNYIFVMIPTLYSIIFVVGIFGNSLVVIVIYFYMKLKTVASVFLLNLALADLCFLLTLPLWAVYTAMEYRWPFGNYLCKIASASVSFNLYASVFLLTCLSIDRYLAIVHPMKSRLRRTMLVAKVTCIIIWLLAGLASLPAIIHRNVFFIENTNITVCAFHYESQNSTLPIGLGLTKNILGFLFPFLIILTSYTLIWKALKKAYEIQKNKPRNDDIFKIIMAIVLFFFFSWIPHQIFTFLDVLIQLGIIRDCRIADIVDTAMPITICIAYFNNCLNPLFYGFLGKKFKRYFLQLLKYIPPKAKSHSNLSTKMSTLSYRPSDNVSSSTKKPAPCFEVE

[3] = HIV-1 AD8 envelope cell-cell fusion blockers – cherry-pick, dose response (AID 652062); assay type: functional, cell-based;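 further: luciferase signal from cell-cell fusion driven by HIV-1 clade B AD8 Env; potency is for inhibitors of fusion seen as a drop in luminescence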
BJ [4] = assay: cells; assay type: functional, cell-based; settings: Homo sapiens
BJ [5] = assay: BJ-TERT fibroblast viability loss – cell-based, RAS-independent, luminescence, dose response (AID 1933); assay type: functional; settings: Homo sapiens
[6] = viability loss in CEM21 cells – cell-based, CellTiter-Glo luminescence, cherry-picked, cytotoxicity control for viral fusion inhibitor project, dose response (AID 652042); assay type: functional;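 further: potency for signal decrease meaning cytotoxicity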
[7] = blockers of HIV-1 envelope-mediated cell-cell fusion – cherry-pick, dose response (AID 652057); assay type: functional, cell-based
Bcl-2-related protein A1 = target: T2, Bcl-2-related protein A1 (Mus musculus, UniProt Q07440); assay type: functional;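 further: confirmatory dose–response counterscreen on Bfl-1, used to check hits from a UBC13 polyubiquitin inhibitor campaign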
T2 sequence (Q07440 whole entry): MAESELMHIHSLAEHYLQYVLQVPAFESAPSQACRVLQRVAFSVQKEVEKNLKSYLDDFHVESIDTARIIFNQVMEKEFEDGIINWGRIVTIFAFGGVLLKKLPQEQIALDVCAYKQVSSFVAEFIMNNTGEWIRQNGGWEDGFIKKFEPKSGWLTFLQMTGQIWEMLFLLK

[8] = DRD fibroblast viability loss – cell-based, non-viral oncogenic, luminescence, dose response (AID 1934); assay type: functional; settings: Homo sapiens
[9] = NIH3T3 cell viability loss – ATP luminescence, mouse fibroblasts, counter-screen, dose response (AID 2010); assay type: functional, cell-based;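 further: cells exposed to compound for about 90 hours before reading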
[10] = blockers of HIV-1 ZM109 envelope-driven cell-cell fusion – HeLa effector, CEM target cells, luciferase, cherry-pick, dose response (AID 652058); assay type: functional, cell-based;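 further: luciferase signal from HIV-1 Env mediated cell-cell fusion of effector and target cells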
[11] = target: T3, Ubiquitin-conjugating enzyme E2 N (Homo sapiens, UniProt P61088); assay type: functional
T3 sequence (P61088 whole entry): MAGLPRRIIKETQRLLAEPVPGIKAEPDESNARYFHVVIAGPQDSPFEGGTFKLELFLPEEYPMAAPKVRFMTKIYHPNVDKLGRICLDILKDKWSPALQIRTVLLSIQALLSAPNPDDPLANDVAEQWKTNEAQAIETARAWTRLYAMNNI

[12] = target: T3, Ubiquitin-conjugating enzyme E2 N; assay type: functional; remark: listed apart in the source
[13] = Trypanosoma cruzi growth suppression in host cells – NIH3T3 host cells, beta-gal luminescence, confirmation (AID 2044); assay type: functional, cell-based;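 further: intracellular parasites grown in NIH/3T3 mouse fibroblasts as host cells; luminescent beta-galactosidase reporter signal from transgenic T. cruzi replicating inside host cells; inhibitors lower the luminescence signal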
[14] = off-target signal loss in HeLa-CEM21 co-culture – HeLa F-luc CTL cells, cherry-picked, counter-screen for HIV-1 Env fusion inhibitor project, dose response (AID 652040); assay type: functional, cell-based;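 further: potency for signal decrease marking cytotoxic or nonspecific inhibition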
[15] = target: G-protein coupled receptor 55 (Homo sapiens, UniProt Q9Y2T6); assay: SAR analysis of selective Agonists of GPR55 using an Image-Based Assay - Set 2. [Related pubchem assays (depositor defined):AID1961, AID1965]; assay type: functional
[16] = target: T4, G-protein coupled receptor 35 (Homo sapiens, UniProt Q9HC97); assay: SAR analysis of Agonists of the GPR35 Receptor using an Image-Based Assay - Set 3. [Related pubchem assays (depositor defined):AID1961, AID1965]; assay type: functional
Cannabinoid receptor 2 [17] = target: T5, Cannabinoid receptor 2 (Homo sapiens, UniProt P34972); assay: SAR analysis of agonists of the Cannabinoid Receptor 2 using an Image-Based Assay - Set 2. [Related pubchem assays (depositor defined):AID1961, AID1965]; assay type: functional
Cannabinoid receptor 1 [18] = target: T6, Cannabinoid receptor 1 (Homo sapiens, UniProt P21554); assay: SAR analysis of antagonists of the Cannabinoid Receptor 1 using an Image-Based Assay - Set 3. [Related pubchem assays (depositor defined):AID1961, AID1965]; assay type: functional
Cannabinoid receptor 2 [19] = target: T5, Cannabinoid receptor 2; assay: SAR analysis of antagonists of the Cannabinoid Receptor 2 using an Image-Based Assay - Set 2. [Related pubchem assays (depositor defined):AID1961, AID1965]; assay type: functional
[20] = target: T4, G-protein coupled receptor 35; assay: SAR analysis of Antagonists of the GPR35 Receptor using an Image-Based Assay - Set 4. [Related pubchem assays (depositor defined):[…]]; assay type: functional
Cannabinoid receptor 1 [21] = target: T6, Cannabinoid receptor 1; assay: SAR analysis of agonists of the Cannabinoid Receptor 1 using an Image-Based Assay - Set 3. [Related pubchem assays (depositor defined):AID1961, AID1965]; assay type: functional
Coagulation factor XII [22] = target: T7, Coagulation factor XII (Homo sapiens, UniProt P00748); assay: Factor XIIa Dose Response Confirmation from Single Well HTS. [Related pubchem assays (depositor defined):AID701]; assay type: functional
T7 sequence (P00748 whole entry): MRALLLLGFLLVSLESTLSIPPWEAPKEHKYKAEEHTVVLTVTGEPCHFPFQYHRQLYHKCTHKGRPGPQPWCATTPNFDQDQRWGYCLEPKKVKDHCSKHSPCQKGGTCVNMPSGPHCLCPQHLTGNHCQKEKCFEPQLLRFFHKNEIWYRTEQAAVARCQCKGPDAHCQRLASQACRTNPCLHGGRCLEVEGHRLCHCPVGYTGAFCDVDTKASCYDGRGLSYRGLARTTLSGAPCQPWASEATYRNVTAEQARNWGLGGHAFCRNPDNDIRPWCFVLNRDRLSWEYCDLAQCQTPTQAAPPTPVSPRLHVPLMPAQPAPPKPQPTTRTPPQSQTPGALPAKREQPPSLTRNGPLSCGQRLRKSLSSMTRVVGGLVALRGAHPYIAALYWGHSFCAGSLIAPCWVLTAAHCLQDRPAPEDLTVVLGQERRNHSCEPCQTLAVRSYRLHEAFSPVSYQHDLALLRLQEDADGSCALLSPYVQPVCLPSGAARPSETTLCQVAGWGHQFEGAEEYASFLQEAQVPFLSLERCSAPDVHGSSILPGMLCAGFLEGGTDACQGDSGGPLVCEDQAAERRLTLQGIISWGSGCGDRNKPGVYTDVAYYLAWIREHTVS

Coagulation factor XII [23] = target: T7, Coagulation factor XII; assay: activated coagulation factor XII inhibitor potency, concentration-effect curve, cell-free (AID 716); assay type: functional

T6 sequence (P21554 whole entry): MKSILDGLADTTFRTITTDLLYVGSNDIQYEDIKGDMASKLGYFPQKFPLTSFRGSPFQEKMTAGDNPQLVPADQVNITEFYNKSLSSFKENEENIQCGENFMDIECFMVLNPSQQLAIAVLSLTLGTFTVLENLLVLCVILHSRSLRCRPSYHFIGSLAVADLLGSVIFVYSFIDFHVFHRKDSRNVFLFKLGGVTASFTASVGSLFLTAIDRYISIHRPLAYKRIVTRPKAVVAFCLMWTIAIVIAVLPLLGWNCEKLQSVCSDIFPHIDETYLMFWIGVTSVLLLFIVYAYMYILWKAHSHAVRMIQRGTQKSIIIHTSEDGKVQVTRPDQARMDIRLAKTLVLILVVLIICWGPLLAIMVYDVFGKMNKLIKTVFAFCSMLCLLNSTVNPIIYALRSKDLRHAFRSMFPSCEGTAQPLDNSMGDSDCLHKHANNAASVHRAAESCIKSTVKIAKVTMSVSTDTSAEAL
T4 sequence (Q9HC97 whole entry): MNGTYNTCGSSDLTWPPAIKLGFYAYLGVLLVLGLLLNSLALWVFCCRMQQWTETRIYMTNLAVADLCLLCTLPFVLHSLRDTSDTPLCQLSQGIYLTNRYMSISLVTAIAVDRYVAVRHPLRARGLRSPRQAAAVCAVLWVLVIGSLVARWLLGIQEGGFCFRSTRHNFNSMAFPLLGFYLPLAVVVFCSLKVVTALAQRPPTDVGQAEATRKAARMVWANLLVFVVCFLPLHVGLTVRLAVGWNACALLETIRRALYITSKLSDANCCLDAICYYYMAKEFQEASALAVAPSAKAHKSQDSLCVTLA
T5 sequence (P34972 whole entry): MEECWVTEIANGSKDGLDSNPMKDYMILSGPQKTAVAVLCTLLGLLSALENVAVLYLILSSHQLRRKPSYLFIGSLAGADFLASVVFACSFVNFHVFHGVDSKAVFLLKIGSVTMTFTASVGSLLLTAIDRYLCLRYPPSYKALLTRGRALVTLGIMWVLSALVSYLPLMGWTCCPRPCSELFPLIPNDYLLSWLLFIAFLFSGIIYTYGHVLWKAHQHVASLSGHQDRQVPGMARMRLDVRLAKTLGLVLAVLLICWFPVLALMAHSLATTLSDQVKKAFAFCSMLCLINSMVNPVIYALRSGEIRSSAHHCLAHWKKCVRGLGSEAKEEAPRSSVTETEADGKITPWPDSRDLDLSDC
Chain of G-protein coupled receptor 55 (Q9Y2T6 whole entry): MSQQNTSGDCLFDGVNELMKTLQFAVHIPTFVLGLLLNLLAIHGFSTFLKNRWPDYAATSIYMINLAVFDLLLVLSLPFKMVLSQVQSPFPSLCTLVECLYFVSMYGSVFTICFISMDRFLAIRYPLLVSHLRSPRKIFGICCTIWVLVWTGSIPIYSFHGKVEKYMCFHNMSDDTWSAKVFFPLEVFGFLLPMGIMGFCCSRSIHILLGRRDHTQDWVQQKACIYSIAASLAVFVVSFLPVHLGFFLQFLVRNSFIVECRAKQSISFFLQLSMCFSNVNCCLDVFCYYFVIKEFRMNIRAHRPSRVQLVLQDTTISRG

Compound: COc1ccc2sc(N(CCCN(C)C)C(=O)c3ccc(S(=O)(=O)N4CCc5ccccc5C4)cc3)nc2c1
- EC50 (BJ [1]): 4.5 µM (inconclusive)
- EC50 [2]: > 100 µM (inactive)
- AC50 [3]: 6.84 µM (active)
- EC50 (BJ [4]): 10 µM (active)
- EC50 (BJ [5]): 2.75 µM (inconclusive)
- AC50 [6]: 3.7 µM (active)
- AC50 [7]: 6.44 µM (active)
- IC50 (Bcl-2-related protein A1): > 20 µM (inactive)
- EC50 [8]: 5.14 µM (inconclusive)
- EC50 [9]: 5.73 µM (active)
- AC50 [10]: 9.11 µM (active)
- IC50 [11]: 8.54 µM (active)
- IC50 [12]: 8.44 µM (active)
- EC50 [13]: 0.228 µM (active)
- AC50 [14]: 8.3 µM (active)

Compound: CC(C)Oc1ccc(S(=O)(=O)N2CCOCC2)cc1NC(=O)c1cc2ccccc2s1
- EC50 [15]: > 32 µM (inactive)
- EC50 [16]: > 32 µM (inactive)
- EC50 (Cannabinoid receptor 2 [17]): > 32 µM (inactive)
- IC50 (Cannabinoid receptor 1 [18]): > 32 µM (inactive)
- IC50 (Cannabinoid receptor 2 [19]): > 32 µM (inactive)
- IC50 [20]: > 32 µM (inactive)
- EC50 (Cannabinoid receptor 1 [21]): > 32 µM (inactive)

Compound: Cc1ccc(NC(=O)C2(S(=O)(=O)c3ccc(C)cc3)CC2)cc1
- IC50 (Coagulation factor XII [22]): > 50 µM (inactive)

Compound: Cc1c(C(=O)OCCOC(C)C)[nH]c2c1C(=O)CC(C)(C)C2
- IC50 (Coagulation factor XII [23]): > 50 µM (inactive)
